Data as given in US20150141381A1, “TETRACYCLINE COMPOUNDS HAVING TARGET THERAPEUTIC ACTIVITIES” (Paratek Pharmaceuticals, Inc., priority 2001, published 2015).
Read-outs that look alike come from different tables or passages of the source.

Assays:
[1] = test system: S. aureus RN450; assay: In Vitro Anti-Bacterial Activity Assay (MIC), gram positive; format: cell-based; settings: Staphylococcus aureus, RN450, 18 h, read-out: Antibiotic Activity Gram +
[2] = test system: E. coli mL308 225; assay: In Vitro Anti-Bacterial Activity Assay (MIC), gram negative; format: cell-based; settings: Escherichia coli, ML308225, 18 h, read-out: Antibiotic Activity Gram −

Structure (SMILES)	MIC ([1]; MIC class, Table 3)	MIC ([2]; MIC class, Table 3)	MIC [1]	MIC [2]
CN(C)c1cc(C#Cc2cccc(O)c2)c(O)c2c1C[C@H]1C[C@H]3[C@H](N(C)C)C(O)=C(C(N)=O)C(=O)[C@@]3(O)C(O)=C1C2=O [AJ]	< 4 µg/mL	> 4 µg/mL	–	–
CN(C)CC#Cc1ccc(O)c2c1C[C@H]1C[C@H]3[C@H](N(C)C)C(O)=C(C(N)=O)C(=O)[C@@]3(O)C(O)=C1C2=O [AL]	< 4 µg/mL	< 4 µg/mL	–	–
CN(C)[C@H]1C(O)=C(C(N)=O)C(=O)[C@@]2(O)C(O)=C3C(=O)c4c(O)ccc(-c5cccc(N)c5)c4C[C@H]3C[C@@H]12 [AM]	< 4 µg/mL	< 4 µg/mL	–	–
CN(C)c1cc(C#CC2(O)CCCCC2)c(O)c2c1C[C@H]1C[C@H]3[C@H](N(C)C)C(O)=C(C(N)=O)C(=O)[C@@]3(O)C(O)=C1C2=O [AN]	> 4 µg/mL	> 4 µg/mL	–	–
CC(=O)c1cccc(-c2ccc(O)c3c2C[C@H]2C[C@H]4[C@H](N(C)C)C(O)=C(C(N)=O)C(=O)[C@@]4(O)C(O)=C2C3=O)c1 [AO]	< 4 µg/mL	> 4 µg/mL	–	–
CN(C)c1cc(-c2ccc(C(=O)O)cc2)c(O)c2c1C[C@H]1C[C@H]3[C@@H](N(C)C)C(O)=C(C(N)=O)C(=O)[C@@]3(O)C(O)=C1C2=O [AP]	> 4 µg/mL	> 4 µg/mL	–	–
CN(C)C(=O)/C=C/c1ccc(O)c2c1C[C@H]1C[C@H]3[C@H](N(C)C)C(O)=C(C(N)=O)C(=O)[C@@]3(O)C(O)=C1C2=O [AQ]	< 4 µg/mL	< 4 µg/mL	–	–
CN(C)[C@@H]1C(O)=C(C(N)=O)C(=O)[C@@]2(O)C(O)=C3C(=O)c4c(ccc(CN)c4O)C[C@H]3C[C@@H]12 [AR]	< 4 µg/mL	< 4 µg/mL	–	–
COc1ccc(OC(=O)Nc2ccc3c(c2O)C(=O)C2=C(O)[C@]4(O)C(=O)C(C(N)=O)=C(O)[C@@H](N(C)C)[C@@H]4C[C@@H]2C3)cc1 [AS]	–	–	< 4 µg/mL	> 4 µg/mL
CN(C)[C@@H]1C(O)=C(C(N)=O)C(=O)[C@@]2(O)C(O)=C3C(=O)c4c(ccc(NC(=O)Nc5cccc6ccccc56)c4O)C[C@H]3C[C@@H]12 [AU]	< 4 µg/mL	> 4 µg/mL	–	–
Cc1ccc(OC(=O)Nc2ccc(O)c3c2C[C@H]2C[C@H]4[C@H](N(C)C)C(O)=C(C(N)=O)C(=O)[C@@]4(O)C(O)=C2C3=O)cc1 [AV]	–	–	< 4 µg/mL	< 4 µg/mL
C=C(Cl)c1ccc(O)c2c1C[C@H]1C[C@H]3[C@H](N(C)C)C(O)=C(C(N)=O)C(=O)[C@@]3(O)C(O)=C1C2=O [AW]	< 4 µg/mL	< 4 µg/mL	–	–
CCOC(=O)/C(I)=C/C(=C/c1ccc(O)c2c1C[C@H]1C[C@H]3[C@H](N(C)C)C(O)=C(C(N)=O)C(=O)[C@@]3(O)C(O)=C1C2=O)C(=O)OCC [AX]	> 4 µg/mL	> 4 µg/mL	–	–
CN(C)[C@@H]1C(O)=C(C(N)=O)C(=O)[C@@]2(O)C(O)=C3C(=O)c4c(O)ccc(/C=C/c5ccc(N)cc5)c4C[C@H]3C[C@@H]12 [AY]	< 4 µg/mL	> 4 µg/mL	–	–
C[C@H]1c2cccc(O)c2C(=O)C2=C(O)[C@]3(O)C(=O)C(C(N)=O)=C(O)[C@@H](N(C)C)[C@@H]3[C@@H](O)[C@@H]21 [A]	< 4 µg/mL	< 4 µg/mL	–	–
CN(C)c1cc(C#Cc2ccccn2)c(O)c2c1C[C@H]1C[C@H]3[C@H](N(C)C)C(O)=C(C(N)=O)C(=O)[C@@]3(O)C(O)=C1C2=O [BA]	> 4 µg/mL	> 4 µg/mL	–	–
CN(C)[C@@H]1C(O)=C(C(N)=O)C(=O)[C@@]2(O)C(O)=C3C(=O)c4c(O)ccc(C#CCCCC#N)c4C[C@H]3C[C@@H]12 [BB]	< 4 µg/mL	< 4 µg/mL	–	–
COc1ccc(C=O)cc1-c1ccc(O)c2c1C[C@H]1C[C@H]3[C@H](N(C)C)C(O)=C(C(N)=O)C(=O)[C@@]3(O)C(O)=C1C2=O [BC]	< 4 µg/mL	< 4 µg/mL	–	–
CC(O)C#Cc1ccc(O)c2c1C[C@H]1C[C@H]3[C@H](N(C)C)C(O)=C(C(N)=O)C(=O)[C@@]3(O)C(O)=C1C2=O (some centres unmarked) [BD]	< 4 µg/mL	< 4 µg/mL	–	–
CN(C)[C@@H]1C(O)=C(C(N)=O)C(=O)[C@@]2(O)C(O)=C3C(=O)c4c(O)ccc(C#Cc5ccc(N)cc5)c4C[C@H]3C[C@@H]12 [BE]	< 4 µg/mL	> 4 µg/mL	–	–
CN(C)[C@@H]1C(O)=C(C(N)=O)C(=O)[C@@]2(O)C(O)=C3C(=O)c4c(O)ccc(-c5cccc(C=O)c5)c4C[C@H]3C[C@@H]12 [BF]	< 4 µg/mL	< 4 µg/mL	–	–
CN(C)[C@@H]1C(O)=C(C(N)=O)C(=O)[C@@]2(O)C(O)=C3C(=O)c4c(O)ccc(C#CC(=O)O)c4C[C@H]3C[C@@H]12 [BH]	> 4 µg/mL	> 4 µg/mL	–	–
CN(C)[C@@H]1C(O)=C(C(N)=O)C(=O)[C@@]2(O)C(O)=C3C(=O)c4c(O)ccc(C#Cc5cccc(O)c5)c4C[C@H]3C[C@@H]12 [BI]	< 4 µg/mL	> 4 µg/mL	–	–

Structure (SMILES)	MIC ([1]; MIC class, Table 3)	MIC ([2]; MIC class, Table 3)	MIC [1]	MIC [2]
CC(=O)c1ccc(O)c2c1C[C@H]1C[C@H]3[C@H](N(C)C)C(O)=C(C(N)=O)C(=O)[C@@]3(O)C(O)=C1C2=O [BJ]	< 4 µg/mL	< 4 µg/mL	–	–
COc1cccc(CCc2ccc(O)c3c2C[C@H]2C[C@H]4[C@H](N(C)C)C(O)=C(C(N)=O)C(=O)[C@@]4(O)C(O)=C2C3=O)c1 [BK]	< 4 µg/mL	> 4 µg/mL	–	–
CN(C)[C@@H]1C(O)=C(C(N)=O)C(=O)[C@@]2(O)C(O)=C3C(=O)c4c(O)ccc(/C=C/c5ccc(Br)cc5)c4C[C@H]3C[C@@H]12 [BL]	< 4 µg/mL	> 4 µg/mL	–	–
CN(C)CC(=O)Nc1ccc(C#Cc2ccc(O)c3c2C[C@H]2C[C@H]4[C@H](N(C)C)C(O)=C(C(N)=O)C(=O)[C@@]4(O)C(O)=C2C3=O)cc1 [BM]	< 4 µg/mL	< 4 µg/mL	–	–
CN(C)[C@@H]1C(O)=C(C(N)=O)C(=O)[C@@]2(O)C(O)=C3C(=O)c4c(O)ccc(-c5ccc(C(=O)O)cc5)c4C[C@H]3C[C@@H]12 [BN]	< 4 µg/mL	> 4 µg/mL	–	–
CN(C)[C@@H]1C(O)=C(C(N)=O)C(=O)[C@@]2(O)C(O)=C3C(=O)c4c(O)ccc(C=CC(N)=O)c4C[C@H]3C[C@@H]12 [BO]	> 4 µg/mL	> 4 µg/mL	–	–
CN(C)CCCc1ccc(O)c2c1C[C@H]1C[C@H]3[C@H](N(C)C)C(O)=C(C(N)=O)C(=O)[C@@]3(O)C(O)=C1C2=O [BQ]	< 4 µg/mL	> 4 µg/mL	–	–
COc1ccc(C#Cc2cc(C#Cc3ccc(OC)cc3)c3c(c2O)C(=O)C2=C(O)[C@]4(O)C(=O)C(C(N)=O)=C(O)[C@@H](N(C)C)[C@@H]4C[C@@H]2C3)cc1 [BS]	> 4 µg/mL	> 4 µg/mL	–	–
CN(C)C1C(O)=C(C(N)=O)C(=O)[C@@]2(O)C(O)=C3C(=O)c4c(O)ccc(-c5ccc(CN6CCCC6)cc5)c4C[C@H]3C[C@@H]12 (some centres unmarked) [BT]	< 4 µg/mL	< 4 µg/mL	–	–
CN(C)[C@@H]1C(O)=C(C(N)=O)C(=O)[C@@]2(O)C(O)=C3C(=O)c4c(O)ccc(C#Cc5ccc(NS(C)(=O)=O)cc5)c4C[C@H]3C[C@@H]12 [BU]	< 4 µg/mL	> 4 µg/mL	–	–
COc1ccc(CN2CCOCC2)cc1-c1ccc(O)c2c1C[C@H]1C[C@H]3[C@H](N(C)C)C(O)=C(C(N)=O)C(=O)[C@@]3(O)C(O)=C1C2=O [BV]	< 4 µg/mL	> 4 µg/mL	–	–
COc1cc(C/C=C\c2ccc(O)c3c2C[C@H]2C[C@H]4[C@H](N(C)C)C(O)=C(C(N)=O)C(=O)[C@@]4(O)C(O)=C2C3=O)ccc1O [BW]	< 4 µg/mL	> 4 µg/mL	–	–
CN(C)[C@@H]1C(O)=C(C(N)=O)C(=O)[C@@]2(O)C(O)=C3C(=O)c4c(O)ccc(CCc5ccccn5)c4C[C@H]3C[C@@H]12 [BY]	< 4 µg/mL	> 4 µg/mL	–	–
CN(C)c1ccc(O)c2c1C[C@H]1C[C@H]3[C@H](N(C)C)C(O)=C(C(N)=O)C(=O)[C@@]3(O)C(O)=C1C2=O [B]	< 4 µg/mL	< 4 µg/mL	–	–
CN(C)c1cc(NC(=S)Nc2cccc3ccccc23)c(O)c2c1C[C@H]1C[C@H]3[C@H](N(C)C)C(O)=C(C(N)=O)C(=O)[C@@]3(O)C(O)=C1C2=O [CA]	< 4 µg/mL	> 4 µg/mL	–	–
CN(C)c1cc(NC(=O)Nc2ccccc2)c(O)c2c1C[C@H]1C[C@H]3[C@H](N(C)C)C(O)=C(C(N)=O)C(=O)[C@@]3(O)C(O)=C1C2=O [CB]	< 4 µg/mL	> 4 µg/mL	–	–
CN(C)[C@@H]1C(O)=C(C(N)=O)C(=O)[C@@]2(O)C(O)=C3C(=O)c4c(O)c(C(C)(C)C)cc(CNC(=O)c5cccnc5)c4C[C@H]3C[C@@H]12 [CE]	> 4 µg/mL	> 4 µg/mL	–	–
CN(C)c1cc(NC(=O)Nc2ccc(OC(F)(F)F)cc2)c(O)c2c1C[C@H]1C[C@H]3[C@H](N(C)C)C(O)=C(C(N)=O)C(=O)[C@@]3(O)C(O)=C1C2=O [CG]	< 4 µg/mL	> 4 µg/mL	–	–
CN(C)c1cc(NC(=O)NC(=O)c2ccccc2)c(O)c2c1C[C@H]1C[C@H]3[C@H](N(C)C)C(O)=C(C(N)=O)C(=O)[C@@]3(O)C(O)=C1C2=O [CH]	< 4 µg/mL	> 4 µg/mL	–	–
CN(C)c1cc(NC(=S)Nc2cc(C(F)(F)F)cc(C(F)(F)F)c2)c(O)c2c1C[C@H]1C[C@H]3[C@H](N(C)C)C(O)=C(C(N)=O)C(=O)[C@@]3(O)C(O)=C1C2=O [CI]	< 4 µg/mL	> 4 µg/mL	–	–
COc1ccc(CN(C)C)cc1-c1ccc(O)c2c1C[C@H]1C[C@H]3[C@H](N(C)C)C(O)=C(C(N)=O)C(=O)[C@@]3(O)C(O)=C1C2=O [CJ]	< 4 µg/mL	< 4 µg/mL	–	–
CN(C)[C@@H]1C(O)=C(C(N)=O)C(=O)[C@@]2(O)C(O)=C3C(=O)c4c(O)ccc(C#CCNS(C)(=O)=O)c4C[C@H]3C[C@@H]12 [CM]	> 4 µg/mL	> 4 µg/mL	–	–
CN(C)[C@@H]1C(O)=C(C(N)=O)C(=O)[C@@]2(O)C(O)=C3C(=O)c4c(O)ccc(-c5cccc(C(N)=O)c5)c4C[C@H]3C[C@@H]12 [CN]	< 4 µg/mL	< 4 µg/mL	–	–
